Results: patent US11573281B2, “Magnetic resonance fingerprinting method for recordings with a contrast agent” (Bayer Aktiengesellschaft, priority 2018, dated 2023)
Where two headings read alike, the source gives them in different places.

Assays:
[1] = Blood, cited from earlier work
[2] = Liver tissue, 0.47 T; Schuhmann-Giampieri et al.; cited from earlier work
[3] = molar relaxivity of Gd-EOB-DTPA in bile; assay type: physicochemical
[4] = molar relaxivity of Gd-EOB-DTPA in blood; assay type: physicochemical
[5] = Plasma, Rohrer et al., cited from earlier work
[6] = molar relaxivity of Gd-EOB-DTPA in urine; assay type: physicochemical
[7] = molar relaxivity of Gd-EOB-DTPA in liver tissue; assay type: physicochemical; settings: for molar relaxivity: Liver tissue
[8] = Water, Rohrer et al., cited from earlier work
[9] = molar relaxivity of Gd-EOB-DTPA in plasma; assay type: physicochemical; settings: plasma vs bile

molar relaxivity ([3]; 1.41 T): 5.6 ± 0.3 (s·mmol/L)^−1
molar relaxivity ([3]; 1.5 T): 5.6 ± 0.4 (s·mmol/L)^−1
molar relaxivity ([3]; 3 T): 5.6 ± 0.3 (s·mmol/L)^−1
molar relaxivity ([4]; 1.41 T): 8.1 ± 0.2 (s·mmol/L)^−1
molar relaxivity ([4]; 1.5 T): 8.3 ± 0.3 (s·mmol/L)^−1
molar relaxivity ([4]; 3 T): 7.2 ± 0.1 (s·mmol/L)^−1
molar relaxivity ([6]; 1.41 T): 5.5 ± 0.1 (s·mmol/L)^−1
molar relaxivity ([6]; 1.5 T): 5.5 ± 0.2 (s·mmol/L)^−1
molar relaxivity ([6]; 3 T): 5.6 ± 0.1 (s·mmol/L)^−1
molar relaxivity ([7]; 1.41 T): 14.0 ± 2.8 (s·mmol/L)^−1
molar relaxivity ([7]; 1.5 T): 16.4 ± 3.1 (s·mmol/L)^−1
molar relaxivity ([7]; 3 T): 13.4 ± 4.0 (s·mmol/L)^−1
molar relaxivity in liver cells (hepatocytes) compared with plasma ([7]; liver cells (hepatocytes) vs plasma): significantly higher
molar relaxivity in plasma compared with bile [9]: significantly higher
SMILES: CCOc1ccc(CC(CN(CCN(CC(=O)[O-])CC(=O)[O-])CC(=O)[O-])N(CC(=O)[O-])CC(=O)[O-])cc1.[Gd+3].[Na+].[Na+] (centres unmarked) [Gd-EOB-DTPA, gadolinium ethoxybenzyl diethylenetriaminepentaacetic acid]
molar relaxivity ([1]; 0.47 T, Schuhmann-Giampieri et al.): 11.0^(2) (s·mmol/L)^−1
molar relaxivity ([1]; 1.5 T, Rohrer et al.): 7.3 (s·mmol/L)^−1
molar relaxivity [2]: 16.6^(2) (s·mmol/L)^−1
molar relaxivity ([5]; 0.47 T): 8.7^(1) (s·mmol/L)^−1
molar relaxivity ([5]; 1.5 T): 6.9^(1) (s·mmol/L)^−1
molar relaxivity ([5]; 3 T): 6.2^(1) (s·mmol/L)^−1
molar relaxivity ([8]; 0.47 T): 5.3^(1) (s·mmol/L)^−1
molar relaxivity ([8]; 1.5 T): 4.7^(1) (s·mmol/L)^−1
molar relaxivity ([8]; 3 T): 4.3^(1) (s·mmol/L)^−1
